“Also recorded” adds a separate entry of the source.
Assays:
Assay type in all cases: in vivo, C57B1/6 mice
[1] = system: antibody-forming cells (AFC) in the spleen; test: Influence of AFP/compound complexes and their components on humoral immune response (AFC in spleen); conditions: for Immunogenic activity: compound alone; for Dose at which immunostimulating effect in vivo is displayed: compound in a complex with AFP
Description: 0.15 ml of AFP/Compound 3 complex was administered intravenously to 6 mice males of C57B1/6 line (weight 18-22 g) in the dose of […] of AFP and 45.5 μg of compound 3 per capita. Simultaneously suspension of 5·10^7 sheep erythrocytes was injected intraperitoneally (0.2 ml per capita). In the group with compound 3 mice were injected intravenously by one in the dose of 45.5 μg. Animals of group with AFP received 9 μg of AFP. Mice of control group were injected intravenously with equal volume of saline. Complex AFP/Compound 3 effect on humoral immune response was analyzed by counting the quantity of AFC in the spleen according to Cunningham (per 10^6 spleen cells and per spleen).
0.15 ml of AFP/Compound 2a complex (1:100) was administered intravenously to 6 mice males of C57B1/6 line (weight 18-22 g) in the dose of 9 μg of AFP and 45.5 μg of compound 2a per capita. Simultaneously, a suspension of 5·10^7 sheep erythrocytes was injected intraperitoneally (0.2 ml per capita). In the group with compound 2a mice were injected intravenously by one in the dose of 45.5 μg. Animals of group with AFP received 9 μg of AFP. Mice in the control group were injected intravenously with an equal volume of saline. The effect of the AFP/Compound 2a complex on humoral immune response was analyzed by counting the quantity of AFC in the spleen according to Cunningham (per 10^6 spleen cells and per spleen).
(§1) 0.15 ml of AFP/Compound 10 complex (1:200) was administered intravenously to 6 male mice of C57B1/6 line (weight 18-22 g) in the dose of 9 μg of AFP and 91 μg of compound 10 per capita. Simultaneously, a suspension of 5·10^7 sheep erythrocytes was injected intraperitoneally (0.2 ml per capita). In the group receiving compound 10 mice were injected intravenously by one in the dose of 91 μg. Animals in the group with AFP received 9 μg of AFP. Micein the control group were injected intravenously with an equal volume of saline. The effect of the AFP/Compound 10 complex on humoral immune response was analyzed by counting the quantity of AFC in the spleen according to Cunningham (per 10^6 spleen cells and per spleen).
as §1, with “AFP/Compound 14” for “AFP/Compound 10”, “compound 14” for “compound 10”, “group with” for “group receiving”, “Animals of” for “Animals in the”, “AFP. Mice in” for “AFP. Micein”
0.15 ml of AFP/Compound 7 complex (1:200) was administered intravenously to 6 male mice of C57B1/6 line (weight 18-22 g) in the dose of 9 μg of AFP and 91 μg of compound 7 per capita. Simultaneously, a suspension of 5·10^7 sheep erythrocytes was injected intraperitoneally (0.2 ml per capita). In the group with compound 7 mice were injected intravenously by one in the dose of 91 μg. Animals of group with AFP received 9 μg of AFP. Mice of control group were injected intravenously with equal volume of saline. AFP/Compound 7 complex effect on humoral immune response was analyzed by counting the quantity of AFC in the spleen according to Cunningham (per 10^6 spleen cells and per spleen).
0.15 ml of AFP/Compound 15 complex (1:200) was administered intravenously to 6 mice males of C57B1/6 line (weight 18-22 g) in the dose of 9 μg of AFP and 91 μg of compound 15 per capita. Simultaneously, a suspension of 5·10^7 sheep erythrocytes was injected intraperitoneally (0.2 ml per capita). In the group receiving compound 15, the mice were injected intravenously by one in the dose of 91 μg. Animals in the AFP-group received 9 μg of AFP. […]

[2] = system: hemagglutinating antibodies in serum; test: Humoral immune response: titers of hemagglutinating antibodies in serum; conditions: for Amount of hemagglutinins: serum, female mice; for Effect, % on hemagglutinins: versus control
Description: (§2) 0.15 ml of compound 10 was administered intravenously to 6 mice females of CS7B1/6 line (weight 18-22 g) in doses of 45.5, 91 and 136.5 μg of compound 10 per capita for each testing group according to the dose. Simultaneously, a suspension of 5·10^7 sheep erythrocytes was injected intraperitoneally (0.2 ml per capita). Mice in the control group were injected intravenously with equal volume of saline. The effects of compound 10 on humoral immune response were analyzed both by counting the quantity of AFC in the spleen according to Cunningham (per 10^6 spleen cells and per spleen) and estimating the titers of hemagglutining antibodies in serum of the animals (Cunningham A. J., Nature, 1965, Vol.207, No 5001. P.1106-1107), while the titers of hemagglutinating antibodies were evaluated according to litterature (Evans J. et al., Cell, 1974; Vol 3., p.153-158, Feizi T., Menger E., Transfusion, 1970, Vol. 10, p.33-35,).
(§3) 0.15 ml of compound 11 was administered intravenously to 6 female mice of the C57B1/6 line (weight 18-22 g) in doses of 45.5, 91 and 136.5 μg of compound 11 per capita for each testing group according to the dose. Simultaneously, a suspension of 5·10^7 sheep erytrocytes was injected intraperitoneally (0.2 ml per capita). Mice in the control group were injected intravenously with an equal volume of saline. The effects of compound 11 on humoral immune response was analysed both by counting the quantity of AFC in the spleen according to Cunningham (per 10^6 spleen cells and per spleen) and estimating the titers of hemagglutining antibodies in serum of the animals.
as §3, with “12” for “11”, “erythrocytes” for “erytrocytes”, “analyzed” for “analysed”
as §3, with “compound 8” for “compound 11”, “sheep erythrocytes” for “sheep erytrocytes”, “Mice of” for “Mice in”, “response were analyzed” for “response was analysed”
as §3, with “compound 3” for “compound 11”, “Mice of” for “Mice in”, “with” for “with an”, “response were” for “response was”
(§4) 0.15 ml of compound 4 was administered intravenously to 6 female mice of the C57B1/6 line (weight 18-22 g) in a doses of 45.5, 91 and 136.5 μg of compound 4 per capita for each testing group according to the dose. Simultaneously, a suspension of 5·10^7 sheep erythrocytes was injected intraperitoneally (0.2 ml per capita). […]

[3] = system: antibody-forming cells (AFC) in the spleen; test: Humoral immune response: counting antibody-forming cells (AFC) in the spleen according to Cunningham, mice immunised with sheep erythrocytes; conditions: for Amount of antibody-forming cells per 10^6 spleen cells, M ± SEM (relative amount of AFC) / Amount of antibody-forming cells per spleen, M ± SEM (total AFC amount): 5-th day after injection, female mice; for Effect, % on AFC per 10^6 spleen cells / Effect, % on AFC per spleen: versus animals immunised only with sheep erythrocytes; for Dose at which immunostimulating effect in vivo is displayed (micelle form): compound alone
Description: as §2, §3
as §3, with “12” for “11”, “erythrocytes” for “erytrocytes”, “analyzed” for “analysed”
as §3, with “compound 8” for “compound 11”, “sheep erythrocytes” for “sheep erytrocytes”, “Mice of” for “Mice in”, “response were analyzed” for “response was analysed”
as §3, with “compound 3” for “compound 11”, “Mice of” for “Mice in”, “with” for “with an”, “response were” for “response was”
as §4

SMILES | Dose at which immunostimulating effect in vivo is displayed [1] [μg/mouse] | Amount of hemagglutinins ([2]; 45.5 μg/mouse i.v.) [Log2 T] | Effect, % on hemagglutinins ([2]; 45.5 μg/mouse i.v.) | Amount of hemagglutinins ([2]; 91 μg/mouse i.v.) [Log2 T] | Effect, % on hemagglutinins ([2]; 91 μg/mouse i.v.) | Amount of hemagglutinins ([2]; 136.5 μg/mouse i.v.) [Log2 T] | Amount of antibody-forming cells per 10^6 spleen cells, M ± SEM (relative amount of AFC) ([3]; 45.5 μg/mouse i.v.) | Amount of antibody-forming cells per spleen, M ± SEM (total AFC amount) ([3]; 45.5 μg/mouse i.v.) | Effect, % on AFC per 10^6 spleen cells ([3]; 45.5 μg/mouse i.v.) | Effect, % on AFC per spleen ([3]; 45.5 μg/mouse i.v.) [p > 0.05%] | Amount of antibody-forming cells per 10^6 spleen cells, M ± SEM (relative amount of AFC) ([3]; 91 μg/mouse i.v.) | Amount of antibody-forming cells per spleen, M ± SEM (total AFC amount) ([3]; 91 μg/mouse i.v.) | Amount of antibody-forming cells per 10^6 spleen cells, M ± SEM (relative amount of AFC) ([3]; 136.5 μg/mouse i.v.) | Amount of antibody-forming cells per spleen, M ± SEM (total AFC amount) ([3]; 136.5 μg/mouse i.v.) | Dose at which immunostimulating effect in vivo is displayed (micelle form) [3] [μg/mouse] | Effect, % on hemagglutinins ([2]; 136.5 μg/mouse i.v.) | also measured
CC1=C(/C=C/C(C)=C/C=C/C(C)=C/C(=O)NCCOP(=O)(O)O)C(C)(C)CCC1 [Compound 1, N-(all-trans-retinoyl)-o-phospho-2-aminoethanol] | 45.5 |  |  |  |  |  |  |  |  |  |  |  |  |  |  |  | Immunogenic activity ([1]; 45.5 μg/mouse): no immunogenic activity; also recorded: do not inhibit immunogenic activity
CC1=C(/C=C/C(C)=C/C=C/C(C)=C/C(=O)N[C@@H](Cc2ccc(OP(=O)(O)O)cc2)C(=O)O)C(C)(C)CCC1 (stereo in doubt) [Compound 4, N-(all-trans-retinoyl)-o-phospho-L-tyrosine] |  | 6.0 ± 0.3 | −3.2 p > 0.05% | 6.5 ± 0.4 | +4.8 p > 0.05% | 7.5±0.2 | 405.0±47.9 | 55.0±6.7 × 10^3 | −0.3 p >0.05% | −8.9 | 692.9±44.8 | 87.6±4.3 × 10^3 | 1354.3±99.9 | 138.9±10.0 × 10^3 | 91 |  | Immunogenic activity ([3]; dose of 45.5 μg/mouse): no immunogenic activity; immunostimulating action ([3]; doses of 91 and 136.5 μg/mouse): high immunostimulating action
CCCCC/C=C\C/C=C\C/C=C\C/C=C\CCCC(=O)N[C@H](C(=O)O)[C@@H](C)OP(=O)(O)O [Compound 7, N-arachidonoyl-o-phospho-L-threonine] | 91 |  |  |  |  |  |  |  |  |  |  |  |  |  |  |  | Immunogenic activity ([1]; 91 μg/mouse): no immunogenic activity; also recorded: do not inhibit immunogenic activity
CC1=C(/C=C/C(C)=C/C=C/C(C)=C\C(=O)NCCOP(=O)(O)O)C(C)(C)CCC1 [Compound 1a, N-(13-cis-retinoyl)-o-phospho-2-aminoethanol] |  | 7.6 ± 0.3 | −1,3 p > 0.05% | 7.6 ± 0.2 | −1,3 p > 0.05% | 8.2 ± 0.4 |  |  |  |  |  |  |  |  | 91 | +6,5 p > 0.05% | 
CC/C=C\C/C=C\C/C=C\CCCCCCCC(=O)N[C@@H](Cc1ccc(OP(=O)(O)O)cc1)C(=O)O [Compound 20, N-linolenoyl-o-phospho-L-tyrosine] |  | 7.4 ± 0.2 |  | 7.5 ± 0.3 | +1.4 p > 0.05% | 7.6 ± 0.4 | 512.8±46.2 | 46.4±4.8 × 10^3 | −9.8 p > 0.05% | −7.4 | 634.5±51.7 | 55.7±5.6 × 10^3 | 845.1±43.1 | 75.8±7.7 × 10^3 |  | +2.7 p > 0.05% | Effect, % on AFC per 10^6 spleen cells ([3]; 91 μg/mouse i.v.): +11.6 p > 0.05%; Effect, % on AFC per spleen ([3]; 91 μg/mouse i.v.): +11.2 p > 0.05%; immunostimulating action ([3]; dose of 136.5 μg/mouse): marked immunostimulating action; Immunogenic activity ([3]; doses of 45.5 and 91 μg/mouse): no immunogenic activity
